In US20020042072A1, “Method for monitoring the effect of cancer therapies” (priority 2000, published 2002):
Where two headings read alike, the source gives them in different places.

Columns and labels:
[1] = tested on: telomerase activity in A431 xenograft; experiment: Telomerase activity (TRAPeze ELISA) in A431 xenograft tumour material; type: in vivo, nu/nu mice
Method: (§1) Human tumour cells KB (CCL-17) and A43 1 (CRL-1555) were obtained from ATCC and cultured in DMEM medium supplemented with 10% fetal calf serum, 10 mM HEPES, 50 μmol/l beta-mercaptoethanol and a standard complement of antibiotics.
(§2) To establish subcutaneous tumours in nu/nu mice (5-6 week old female animals, supplied by Harlan, The Netherlands), cells were trypsinised, washed and suspended in phosphate-buffered physiological solution+10% fetal calf serum at 10^7 cells/ml. 100 μl cell suspension containing 10^6 cells were then injected subcutaneously into the right flank of the mice (one site per mouse). When tumours were well established and had reached diameters of more than 5-9 mm, mice were randomly distributed between treatment and the vehicle control group (7-10 days after cell injection). Test compounds (1 and 5 mg/ml) were dissolved and administered intragastically by gavage needle. Administration was once daily oral dosing in a volume of 10 ml/kg body weight. Tumour diameters were measured three times weekly with a caliper. Volumes (in mm^3) were calculated according to the formula: tumour volume=length*diameter^2*π/6.
(§3) For measuring telomerase activity, the Oncor®, TRAPeze™ Elisa Telomerase Detection Kit was used. Tumour material surgically removed from mice was cleaned and frozen at −70° C. […]

A431 xenograft = experiment: Tumour growth of subcutaneous A431 xenograft; type: in vivo, nu/nu mice; settings: for % reduction of tumour growth: A431 xenograft; for tumor growth in vivo: oral administration, nu/nu mice xenografted with A43 1 or KB tumor cells
Method: as §1, §2

MCF-7 = settings: cited from earlier work
MDA-MB23 1 = settings: cited from earlier work
NTERA-2 = settings: NTERA-2, differentiation-sensitive clones; cited from earlier work
NB-4 = settings: NB-4, differentiation-sensitive clones; cited from earlier work
KB xenograft = experiment: Tumour growth of subcutaneous KB xenograft; type: in vivo, nu/nu mice; settings: 50 mg/kg once daily oral
Method: as §1, §2

[2] = tested on: telomerase activity in KB xenograft; experiment: Telomerase activity (TRAPeze ELISA) in KB xenograft tumour material; type: in vivo, nu/nu mice; settings: 50 mg/kg once daily oral
Method: as §1, §2, §3

CC1(N)CCN(c2ncc3ncnc(Nc4ccc(F)c(Cl)c4)c3n2)CC1 [Inhibitor 2, 4-((3-chloro-4-fluoro-phenyl)amino)-6-(4-amino-4-methyl-1-piperidinyl)-pyrimido(5,4d)pyrimidine]
% reduction of telomerase activity ([1]; 10 mg/kg once daily oral): 96%
% reduction of tumour growth (A431 xenograft; 10 mg/kg once daily oral): 90%
tumor growth in vivo (A431 xenograft): inhibited tumor growth in vivo

CC/C(=C(\c1ccccc1)c1ccc(OCCN(C)C)cc1)c1ccccc1 [tamoxifen]
telomerase activity (MCF-7; MCF-7, 10^−8M): repressive effect
telomerase activity (MCF-7; MCF-7, higher (10^−7 and 10^−6M) or lower (10^−9M) concentrations): no effect
telomerase activity (MDA-MB23 1; MDA-MB23 1, 10^−8M): repressive effect
telomerase activity (MDA-MB23 1; MDA-MB23 1, higher (10^−7 and 10^−6M) or lower (10^−9M) concentrations): no effect

CC1=C(/C=C/C(C)=C/C=C/C(C)=C/C(=O)O)C(C)(C)CCC1 [all-trans-retinoic acid]
telomerase activity (NTERA-2): decline in telomerase activity
telomerase activity (NB-4): decline in telomerase activity

CN1CCC(Nc2ncc3ncnc(Nc4ccc(F)c(Cl)c4)c3n2)CC1 [Inhibitor 1, 4-((3-chloro-4-fluoro-phenyl)amino)-6-(1-methyl-4-piperidinyl-amino)-pyrimido(5,4d)pyrimidine]
% reduction of tumour growth (KB xenograft): 51%
% reduction of telomerase activity ([1]; 50 mg/kg once daily oral): 100%
% reduction of telomerase activity [2]: 6%
% reduction of tumour growth (A431 xenograft; 50 mg/kg once daily oral): 79%
tumor growth in vivo (A431 xenograft): inhibited tumor growth in vivo

CC(=O)NCCCCCCNC(C)=O [hexamethylene bisacetamide]
telomerase activity (NTERA-2): decline in telomerase activity
telomerase activity (NB-4): decline in telomerase activity
